From patent US4350700A, “Pharmaceutical composition containing 1,3,5-substituted biuret compound” (Taiho Pharmaceutical Company, Limited, priority 1979, dated 1982)
Like-named read-outs stand apart in the source and are kept apart here.

How the values were obtained:
ddy strain of male mice = experiment: Acute toxicity (oral, general symptom and death observed for 7 days); assay type: in vivo; details: for Acute toxicity, death number of mice/number of mice tested: 7 days
Method: (§1) Next, several tests for determining the pharmacological properties, in that acute toxicity, anti-pyretic activity, analgesic activity and anti-inflammatory activity of the present 1,3,5-substituted biuret compounds of the formula (1) were conducted and the test results are shown in Table (2). In the tests, each compounds to be tested was used as a suspension in 0.25% carboxymethylcellulose solution. Methods for testing are explained as follows:
The ddy strain of male mice (body weight, 20-25 g) were used as test animals. The mice were fasted overnight and the compound to be tested was administered orally. […] The lethal dose (mg/kg, body weight) of the test compound was determined in connection with the death number of mice/the number of mice tested. In Table 2, the values indicated with Δ marks are 50% lethal dose, LD50 (mg/kg, body weight).

[1] = test system: 10% dry-yeast suspension-induced fever of rats; experiment: Anti-pyretic activity (dry-yeast induced fever, febril index); assay type: in vivo, rats (Wistar strain, male); details: oral, febril index up to 4 hours after administration, dose not stated
Method: as §1
According to the method reported by Tanabe [Folia Pharmacologia Japonica, Vol. 73, pp. 803 (1977)], the Wistar strain of male rats (150-180 g body weight) were used as test animals. The rats were fasted overnight, and 1 ml/100 g (body weight) of 10% dry-yeast suspension were subcutaneously injected on the back of the rats. Five hours afte the injection, the test compound was administered orally, then the body temperature of the rat was measured time sequences. Anti-pyretic activity of the test compound was determined as the FI (febril index) by integrating pyrogenetic curve up to 4 hours after the administration of the test compound with time, and indicated as inhibitory ratio (%) shown by the following formula, [formula]

[2] = test system: pain reaction of the mouse caused by a clamp; experiment: Analgesic activity, Haffner method; assay type: in vivo, mice (ddy strain, male); details: for Analgesic activity, Haffner method, inhibitory ratio: mice
Method: as §1
According to the modified method reported by Fujimura et al., [Bulletin of the Institute for Chemical Research, Kyoto University, No. 25, pp. 36 (1951)], the ddy strain of male mice (body weight, 20-25 g) were used as test animals. The mice were fasted overnight, 100 mg/kg body weight of the test compound was administered orally, then 45 minutes after the administration, the threshhold amount (1.5-2.5 mg/kg body weight) of morphine hydrochloride was injected subcutaneously. Then 1-hour pain reaction of the mouse caused by a clamp was observed. Analgesic activity of the test compound was calculated as the inhibitory ratio (%). In Table 2, the values in parentheses show the data obtained from the test by using the dosage other than 100 mg/kg body weight. Further, the values indicated with Δ marks show 50% effective dose, ED50 (mg/kg body weight).

[3] = test system: carrageenin-induced inflammation of the hindpaw of the rat; experiment: Anti-inflammatory activity, acute carrageenin-induced inflammatory test; assay type: in vivo, rats (Wistar strain, male)
Method: as §1
4. Anti-inflammatory Activity
According to the method of acute carrageenin-induced inflammatory test [Folia Pharmacologia Japonica, Vol. 56, pp. 575 (1960)], the Wistar strain of male rats (body weight, 150-180 g) were used as test animals. The rats were fasted overnight, 100 mg/kg body weight of the test compound was administered orally, then 1 hour after the administration, 0.1 ml of 1% carrageenin solution, as the inflammation inducing agent, was injected subcutaneously to the hindpaw of the rat and the volume of the hindpaw was measured at time sequences. Anti-inflammatory activity of the test compound was calculated as inflammation inhibitory ratio (%) at 3 hours after the injection of inflammation inducing agent.

[4] = test system: acetic acid-induced stretching symptom of mouse; experiment: Analgesic activity, acetic acid-induced stretching method; assay type: in vivo, mice (ddy strain, male); details: read-out: Analgesic activity, acetic acid-induced stretching method, inhibitory ratio
Method: as §1
(1) Acetic acid-induced stretching method
According to the method reported by Koster et.al., [Fed. Proc., Vol. 18, pp. 412 (1959)], the ddy strain of male mice (body weight, 20-25 g) were used as test animals. The mice were fasted overnight, 100 mg/kg body weight of the test compound was administered orally, then 1 hour after the administration, 0.2 ml of 0.7% acetic acid solution was injected intraperitoneally. The acetic acid-induced stretching symptom of mouse was observed. Analgesic activity of the test compound was calculated as the inhibitory ratio (%). In Table 2, the values in parentheses show the data obtained from the test by using the dosage other than 100 mg/kg body weight. Further, the values indicated with Δ marks show 50% effective dose, ED50 (mg/kg body weight).

[5] = Rattus norvegicus, 100 mg/kg oral, rats, 3 hours after carrageenin, read-out: Anti-inflammatory activity, inflammation inhibitory ratio
[6] = Rattus norvegicus, po, 3 h, read-out: Anti-inflammatory activity, inflammation inhibitory ratio

Row | Compound | Anti-pyretic activity, inhibitory ratio [1] | Analgesic activity, Haffner method, inhibitory ratio ([2]; 100 mg/kg oral) | Acute toxicity, death number of mice/number of mice tested (ddy strain of male mice; 2000 mg/kg oral) | inhibition in vivo at 100 mg/kg ([4]; po) | inhibition in vivo at 100 mg/kg [3, 5] | Acute toxicity, death number of mice/number of mice tested (ddy strain of male mice; 1000 mg/kg oral) | further results
1 | 1,3-Dimethyl-5-(4-methyl-2-pyridyl)biuret [compound 18] | 60% | 25% |  |  |  |  | Acute toxicity, 50% lethal dose LD50 (ddy strain of male mice; oral, 7 days observation (Δ values)): 1500 mg/kg; Anti-inflammatory activity, inflammation inhibitory ratio ([3]; 100 mg/kg oral, rats, 3 hours after carrageenin): 20%
2 | CNC(=O)N(C)C(=O)Nc1ccccc1F [Compound No. 4] | 79% | 25% | 0/4 | 37.5% | 41% |  | 
3 | CNC(=O)N(C)C(=O)Nc1ccccc1Cl [Compound No. 5, 1,3-Dimethyl-5-(2-chlorophenyl)biuret] | 28% |  | 0/4 |  |  |  | inhibition in vivo at 200 mg/kg ([4]; po): 37.5%; Analgesic activity, Haffner method, inhibitory ratio ([2]; 200 mg/kg oral): 37.5%; inhibition in vivo at 200 mg/kg ([3]; Rattus norvegicus, 200 mg/kg oral, rats, 3 hours after carrageenin, read-out: Anti-inflammatory activity, inflammation inhibitory ratio): 53%
4 | CCCNC(=O)N(C)C(=O)Nc1ccccc1 [Compound No. 41, 1-n-Propyl-3-methyl-5-phenylbiuret] | 65% | 37.5% | 0/4 | 62.5% | 67% |  | 
5 | CC(C)NC(=O)N(C)C(=O)Nc1ccccc1 [Compound No. 43, 1-Isopropyl-3-methyl-5-phenylbiuret] | 38% | 25% | 0/4 | 50% |  |  | inhibition in vivo at 100 mg/kg [3, 6]: 51%
6 | C=CCNC(=O)N(C)C(=O)Nc1ccccc1 [Compound No. 45] | 125% | 12.5% | 4/4 | 50% |  | 2/4 | inhibition in vivo at 100 mg/kg [3, 6]: 59%
7 | CCCCNC(=O)N(C)C(=O)Nc1ccccc1 [Compound No. 47] | 19% | 62.5% | 0/4 | 75% | 27% |  | 
8 | CC(C)CNC(=O)N(C)C(=O)Nc1ccccc1 [Compound No. 49, 1-Isobutyl-3-methyl-5-phenylbiuret] | 55% |  | 0/4 |  | 57% |  | inhibition in vivo at 40 mg/kg ([4]; po): 50%; ED50 ([2]; Mus musculus, oral, mice (Δ values; range in parentheses), read-out: Analgesic activity, Haffner method, 50% effective dose ED50): 50 mg/kg
9 | CNC(=O)N(C)C(=O)Nc1ccccc1C(F)(F)F [compound 7, 1,3-Dimethyl-5-(2-trifluoromethylphenyl)biuret] | 121% | 12.5% | 3/4 | 62.5% |  | 0/4 | 
10 | CNC(=O)N(C)C(=O)Nc1ccc(CC(=O)O)cc1 [compound 11, 1,3-Dimethyl-5-(4-carboxymethylphenyl)biuret] | 7% | 37.5% | 0/4 | 25% |  |  | 
11 | CNC(=O)N(C)C(=O)Nc1cc(C)ccn1 [compound 17] | 55% | 25% | 3/4 |  |  | 0/4 | inhibition in vivo at 100 mg/kg ([4]; 100 mg/kg oral, mice): 25%; inhibition in vivo at 100 mg/kg [3, 6]: 33%
12 | CNC(=O)N(C)C(=O)Nc1nccs1 [compound 20] | 112% | 25% |  |  | 46% | 3/4 | inhibition in vivo at 100 mg/kg ([4]; 100 mg/kg oral, mice): 25%
13 | CCNC(=O)N(C)C(=O)Nc1ccc(F)cc1 [compound 32, 1-Ethyl-3-methyl-5-(4-fluorophenyl)biuret] | 63% | 37.5% | 4/4 |  |  | 2/4 | inhibition in vivo at 100 mg/kg ([4]; 100 mg/kg oral, mice): 100%
14 | CCNC(=O)N(C)C(=O)Nc1ccc(N(C)C)cc1 [compound 33, 1-Ethyl-3-methyl-5-(4-dimethylaminophenyl)biuret] | 87% | 25% | 4/4 | 62.5% |  | 0/4 | inhibition in vivo at 100 mg/kg [3, 6]: 30%
15 | CCNC(=O)N(C)C(=O)Nc1ccc(OC)cc1 [compound 35, 1-Ethyl-3-methyl-5-(4-methoxyphenyl)biuret] | 112% | 62.5% | 4/4 |  | 19% | 0/4 | inhibition in vivo at 100 mg/kg ([4]; 100 mg/kg oral, mice): 87.5%
16 | CCNC(=O)N(C)C(=O)Nc1ccc(C)cc1 [compound 38, 1-Ethyl-3-methyl-5-(4-methylphenyl)biuret] | 80% | 25% | 3/4 |  |  | 0/4 | inhibition in vivo at 100 mg/kg ([4]; 100 mg/kg oral, mice): 87.5%
17 | CCNC(=O)N(C)C(=O)Nc1ccc(C)c(C)c1 [compound 39, 1-Ethyl-3-methyl-5-(3,4-dimethylphenyl)biuret] | 8% | 37.5% | 0/4 | 50% |  |  | 
18 | CCCCCNC(=O)N(C)C(=O)Nc1ccccc1 [compound 52, 1-n-Pentyl-3-methyl-5-phenylbiuret] | 38% | 37.5% | 0/4 | 62.5% |  |  | 
19 | CN(C)CCNC(=O)N(C)C(=O)Nc1ccccc1 [compound 55, 1-(2-Dimethylaminoethyl)-3-methyl-5-phenylbiuret] |  | 12.5% |  | 12.5% | 22% | 3/4 | Acute toxicity, death number of mice/number of mice tested (ddy strain of male mice; 500 mg/kg oral): 2/4
20 | CN(C(=O)NCCO)C(=O)Nc1ccccc1 [compound 56, 1-(2-Hydroxyethyl)-3-methyl-5-phenylbiuret] |  | 37.5% | 0/4 | 62.5% | 42% |  | 
21 | CONC(=O)N(C)C(=O)Nc1ccccc1 [compound 63, 1-Methoxy-3-methyl-5-phenylbiuret] |  | 25% | 4/4 | 50% |  | 0/4 | inhibition in vivo at 100 mg/kg [3, 6]: 50%
